Data published in the supplement of paper PMC10307832.

What was measured:
Experiment in all cases: relative viability (nuclei count vs DMSO), 5 days (fraction); higher = more cells survive
[1] = compound: CCN1C(=O)C2=CC(=C(N=C2N(C1=O)C3CC3)N)C(=O)N + O=C(c1cc(Cc2n[nH]c(=O)c3ccccc23)ccc1F)N1CCN(C(=O)C2CC2)CC1 [Olaparib] (partner 8 µM)
How it was run: (§1)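 Five library-drug doses in √10 steps were combined with a fixed anchor-drug dose, or a single drug was given alone, by pin tool to lung cancer cell lines in 1536-well plates the day after seeding. Nuclei were stained and counted after 5 days. Relative viability is the nuclei count in treated wells over that in vehicle wells, taken as the median of duplicate plates.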

[2] = compound: CCN1C(=O)C2=CC(=C(N=C2N(C1=O)C3CC3)N)C(=O)N + Cc1cc(Nc2cc(N3CCN(C)CC3)nc(Sc3ccc(NC(=O)C4CC4)cc3)n2)n[nH]1 [Tozasertib] (partner 0.1 µM)
How it was run: as §1

[3] = compound: CCN1C(=O)C2=CC(=C(N=C2N(C1=O)C3CC3)N)C(=O)N + CC1(C)CCC(c2ccc(Cl)cc2)=C(CN2CCN(c3ccc(C(=O)NS(=O)(=O)c4ccc(N[C@H](CCN5CCOCC5)CSc5ccccc5)c(S(=O)(=O)C(F)(F)F)c4)cc3)CC2)C1 [Navitoclax] (partner 0.5 µM)
How it was run: as §1

[4] = compound: CCN1C(=O)C2=CC(=C(N=C2N(C1=O)C3CC3)N)C(=O)N + COc1cccc2cc(-c3nc([C@H]4CC[C@H](C(=O)O)CC4)n4ncnc(N)c34)[nH]c12 [OSI-027] (partner 0.5 µM)
How it was run: as §1

[5] = compound: CCN1C(=O)C2=CC(=C(N=C2N(C1=O)C3CC3)N)C(=O)N + CC(=O)Nc1cccc(-n2c(=O)n(C3CC3)c(=O)c3c(Nc4ccc(I)cc4F)n(C)c(=O)c(C)c32)c1 [Trametinib] (partner 0.02 µM)
How it was run: as §1

Cell Line	relative viability ([1]; first compound 0.253 µM)	relative viability ([1]; first compound 0.8 µM)	relative viability ([1]; first compound 2.53 µM)	relative viability ([1]; first compound 8 µM)	relative viability ([2]; first compound 0.253 µM)	relative viability ([2]; first compound 0.8 µM)	relative viability ([2]; first compound 2.53 µM)	relative viability ([2]; first compound 8 µM)	relative viability ([3]; first compound 0.253 µM)	relative viability ([3]; first compound 0.8 µM)	relative viability ([3]; first compound 2.53 µM)	relative viability ([3]; first compound 8 µM)	relative viability ([4]; first compound 0.253 µM)	relative viability ([4]; first compound 0.8 µM)	relative viability ([4]; first compound 2.53 µM)	relative viability ([4]; first compound 8 µM)	relative viability ([5]; first compound 0.253 µM)	relative viability ([5]; first compound 0.8 µM)	relative viability ([5]; first compound 2.53 µM)	relative viability ([5]; first compound 8 µM)
201T	0.87	0.869	0.832	0.901	1.01	0.993	0.973	1.04	1.26	1.21	1.14	1.22	0.431	0.729	0.761	0.667	0.744	0.702	0.686	0.724
A549	–	0.305	0.302	0.392	–	–	–	–	1.14	1.13	1.22	1.16	–	–	–	–	–	–	–	–
A-427	0.763	0.792	0.703	0.744	0.223	0.226	0.208	0.206	0.994	0.965	0.95	0.98	0.46	0.487	0.49	0.466	0.827	0.7	0.7	0.767
ABC-1	0.92	–	1.05	0.742	0.17	0.167	0.178	0.149	–	–	–	–	0.438	0.474	0.538	0.469	–	–	–	–
BEN	1.16	1.09	1.01	1.08	0.629	0.528	0.443	0.525	0.074	0.0565	0.0783	0.0841	0.297	0.321	0.273	0.295	0.915	0.937	1.11	1.05
CAL-12T	0.734	0.717	0.682	0.658	0.271	0.269	0.282	0.223	1.14	1.1	1.06	1.2	0.689	0.478	0.543	0.512	0.42	0.354	0.386	0.328
COR-L23	0.413	0.319	0.19	0.398	0.197	0.183	0.164	0.161	1.05	0.939	1.03	1.04	0.883	0.819	0.743	0.867	0.581	0.584	0.591	0.592
COR-L 105	0.728	0.768	0.779	0.677	0.346	0.355	0.403	0.327	0.847	0.74	0.586	0.794	0.873	0.729	0.634	0.651	0.478	0.428	0.378	0.47
ChaGo-K-1	0.442	0.437	0.404	0.434	0.218	0.215	0.221	0.2	1.05	0.782	1.11	0.958	0.516	0.518	0.683	0.502	0.922	0.951	0.861	0.875
EKVX	0.849	0.972	0.792	0.682	0.359	0.494	0.358	0.384	0.929	0.897	0.952	0.989	0.803	0.751	0.675	0.498	0.378	0.359	0.372	0.371
EMC-BAC-2	0.546	–	0.498	0.487	0.319	0.249	0.255	0.304	1.2	1.17	1.18	1.32	0.474	0.336	0.33	0.379	0.871	–	0.766	0.9
EPLC-272H	–	0.752	0.975	1.08	0.289	0.227	0.229	0.224	0.994	1.26	1.13	1.2	0.277	0.258	0.266	0.277	0.261	0.239	0.327	0.298
H3255	0.567	0.556	0.567	0.633	0.606	0.682	0.533	1.3	0.625	0.509	0.617	0.559	0.57	0.57	0.577	0.994	0.587	0.578	0.567	0.636
HARA	0.897	0.904	0.915	0.841	0.12	0.129	0.0936	0.111	1.15	1.13	1.08	1.12	0.415	0.576	0.473	0.54	0.513	0.914	0.56	0.545
HCC-15	0.749	0.774	0.651	0.725	0.46	0.389	0.385	0.502	0.692	0.753	0.683	0.69	0.648	0.72	0.685	0.663	0.412	0.382	0.369	0.429
HCC-44	0.982	0.976	0.999	0.975	0.634	0.965	0.789	0.875	1.04	0.994	0.985	1.02	0.568	0.446	0.527	0.421	1.18	0.975	1.06	1.04
HCC-78	0.807	0.902	0.691	0.959	0.422	–	0.289	0.453	0.436	0.788	0.691	0.94	0.434	–	0.354	0.387	0.706	0.733	0.812	0.788
HCC-366	0.351	0.361	0.361	0.37	–	0.0821	0.0697	0.0668	0.985	0.991	1.1	1.05	–	0.938	0.877	0.743	0.416	0.433	0.348	0.343

Cell Line	relative viability ([1]; first compound 0.253 µM)	relative viability ([1]; first compound 0.8 µM)	relative viability ([1]; first compound 2.53 µM)	relative viability ([1]; first compound 8 µM)	relative viability ([2]; first compound 0.253 µM)	relative viability ([2]; first compound 0.8 µM)	relative viability ([2]; first compound 2.53 µM)	relative viability ([2]; first compound 8 µM)	relative viability ([3]; first compound 0.253 µM)	relative viability ([3]; first compound 0.8 µM)	relative viability ([3]; first compound 2.53 µM)	relative viability ([3]; first compound 8 µM)	relative viability ([4]; first compound 0.253 µM)	relative viability ([4]; first compound 0.8 µM)	relative viability ([4]; first compound 2.53 µM)	relative viability ([4]; first compound 8 µM)	relative viability ([5]; first compound 0.253 µM)	relative viability ([5]; first compound 0.8 µM)	relative viability ([5]; first compound 2.53 µM)	relative viability ([5]; first compound 8 µM)
HCC-827	0.681	0.679	0.584	0.699	0.395	0.387	0.457	0.445	1	1.01	0.98	0.954	0.778	0.771	0.793	0.794	0.525	0.538	0.537	0.544
HOP-62	0.349	0.488	0.41	0.572	0.367	0.353	0.382	0.371	1.08	1.11	0.969	0.924	0.96	0.919	0.795	0.883	0.312	0.376	0.333	0.416
IA-LM	0.92	0.818	0.739	0.845	–	–	–	–	0.815	0.583	0.768	0.791	–	–	–	–	–	–	–	–
LC-2-ad	0.803	0.892	0.736	0.772	0.399	0.507	0.484	0.452	0.416	0.45	0.462	0.518	0.693	0.808	0.759	0.829	0.918	0.865	0.845	0.871
LCLC-97TM1	0.422	0.397	0.318	0.419	0.218	0.166	0.204	0.25	0.431	–	–	0.53	0.466	0.371	0.441	0.56	0.194	0.217	0.203	0.182
LCLC-103H	0.739	0.754	0.74	0.772	0.468	0.487	0.472	0.48	–	–	–	–	0.411	0.475	0.49	0.399	0.741	0.663	0.705	0.662
LK-2	0.641	0.706	0.575	0.596	0.184	0.173	0.149	0.161	0.934	0.937	0.976	1.06	0.19	0.196	0.181	0.2	0.756	0.715	0.727	0.795
LOU-NH91	0.913	0.924	0.92	0.946	0.603	0.649	0.635	0.683	0.656	0.68	0.701	0.689	0.637	0.66	0.766	0.692	0.791	0.76	0.772	0.772
LU99A	0.256	0.285	0.256	0.275	0.307	0.277	0.252	0.238	0.778	0.741	0.747	0.875	0.34	0.294	0.284	0.288	0.504	0.545	0.56	0.549
LXF-289	0.957	1.07	1.01	1.18	0.127	0.26	0.206	0.201	0.93	0.951	1.01	0.95	0.827	0.864	0.815	0.793	0.636	0.658	0.661	0.665
NCI-H358	0.584	0.61	0.578	0.581	0.0962	0.114	0.0945	0.119	–	–	–	–	0.85	0.818	0.779	0.814	0.121	0.134	0.144	0.138
NCI-H522	0.6	0.678	0.555	0.65	0.593	0.478	0.496	0.489	–	–	–	–	0.715	0.623	0.647	0.722	0.712	0.797	0.792	0.709
NCI-H650	0.437	0.39	0.296	0.445	0.704	0.759	0.67	0.702	–	–	–	–	0.527	0.46	0.516	0.457	0.994	0.929	0.905	1.04
NCI-H661	0.774	0.782	0.672	0.748	0.339	0.356	0.354	0.335	–	–	–	–	0.773	0.742	0.681	0.677	0.591	0.567	0.546	0.561
NCI-H1563	–	–	–	–	–	–	–	–	–	–	–	–	0.743	0.805	0.759	0.795	–	–	–	–
NCI-H1703	0.702	0.616	0.384	0.379	–	–	–	–	1.01	1.04	1.14	1.46	–	–	–	–	–	–	–	–
NCI-H1792	0.44	0.387	0.292	0.667	–	–	–	–	0.648	0.533	0.834	0.564	0.69	0.696	0.733	0.651	0.457	0.332	0.346	0.39
SW 900	0.84	1.1	0.955	0.928	0.553	0.507	0.457	0.446	–	–	–	–	0.568	0.531	0.475	0.731	0.81	0.864	0.75	0.641
